Measured values published in ChEMBL document CHEMBL1201862, “PubChem BioAssay data set” (2004).
Calls of active or inactive are those of the source.

Columns and labels:
[1] = target: T1, Hexokinase HKDC1 (Homo sapiens, UniProt Q2TB90); experiment: inhibition of HKDC1 glucose phosphorylation – biochemical, W721R variant, dose response (AID 504729); assay type: functional
T1 sequence (Q2TB90 whole entry): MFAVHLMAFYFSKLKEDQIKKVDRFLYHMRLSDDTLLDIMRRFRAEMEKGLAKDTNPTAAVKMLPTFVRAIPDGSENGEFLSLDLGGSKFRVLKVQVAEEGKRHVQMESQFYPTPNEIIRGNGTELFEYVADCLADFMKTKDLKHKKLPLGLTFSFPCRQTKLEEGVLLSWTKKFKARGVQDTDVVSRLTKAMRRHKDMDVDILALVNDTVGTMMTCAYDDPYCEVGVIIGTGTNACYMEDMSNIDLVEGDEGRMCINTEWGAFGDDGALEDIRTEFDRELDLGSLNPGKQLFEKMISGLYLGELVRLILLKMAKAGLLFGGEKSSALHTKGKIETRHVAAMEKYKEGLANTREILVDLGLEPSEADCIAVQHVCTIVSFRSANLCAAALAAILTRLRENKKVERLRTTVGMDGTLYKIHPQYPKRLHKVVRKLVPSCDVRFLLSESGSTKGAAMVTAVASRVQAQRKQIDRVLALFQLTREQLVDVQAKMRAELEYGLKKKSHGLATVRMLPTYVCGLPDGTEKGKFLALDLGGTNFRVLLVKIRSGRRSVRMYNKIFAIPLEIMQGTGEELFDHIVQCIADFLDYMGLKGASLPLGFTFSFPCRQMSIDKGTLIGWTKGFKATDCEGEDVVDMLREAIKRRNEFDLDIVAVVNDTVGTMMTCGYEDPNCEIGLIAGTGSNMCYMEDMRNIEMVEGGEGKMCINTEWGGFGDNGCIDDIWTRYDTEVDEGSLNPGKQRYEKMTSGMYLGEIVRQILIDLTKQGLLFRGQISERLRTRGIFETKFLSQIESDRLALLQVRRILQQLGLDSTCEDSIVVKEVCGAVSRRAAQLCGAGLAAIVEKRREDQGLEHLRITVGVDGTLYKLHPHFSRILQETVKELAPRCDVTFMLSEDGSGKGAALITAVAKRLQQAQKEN

[2] = target: T2, Histone-lysine N-methyltransferase NSD2 (Homo sapiens, UniProt O96028); assay type: biochemical
T2 sequence (O96028 whole entry): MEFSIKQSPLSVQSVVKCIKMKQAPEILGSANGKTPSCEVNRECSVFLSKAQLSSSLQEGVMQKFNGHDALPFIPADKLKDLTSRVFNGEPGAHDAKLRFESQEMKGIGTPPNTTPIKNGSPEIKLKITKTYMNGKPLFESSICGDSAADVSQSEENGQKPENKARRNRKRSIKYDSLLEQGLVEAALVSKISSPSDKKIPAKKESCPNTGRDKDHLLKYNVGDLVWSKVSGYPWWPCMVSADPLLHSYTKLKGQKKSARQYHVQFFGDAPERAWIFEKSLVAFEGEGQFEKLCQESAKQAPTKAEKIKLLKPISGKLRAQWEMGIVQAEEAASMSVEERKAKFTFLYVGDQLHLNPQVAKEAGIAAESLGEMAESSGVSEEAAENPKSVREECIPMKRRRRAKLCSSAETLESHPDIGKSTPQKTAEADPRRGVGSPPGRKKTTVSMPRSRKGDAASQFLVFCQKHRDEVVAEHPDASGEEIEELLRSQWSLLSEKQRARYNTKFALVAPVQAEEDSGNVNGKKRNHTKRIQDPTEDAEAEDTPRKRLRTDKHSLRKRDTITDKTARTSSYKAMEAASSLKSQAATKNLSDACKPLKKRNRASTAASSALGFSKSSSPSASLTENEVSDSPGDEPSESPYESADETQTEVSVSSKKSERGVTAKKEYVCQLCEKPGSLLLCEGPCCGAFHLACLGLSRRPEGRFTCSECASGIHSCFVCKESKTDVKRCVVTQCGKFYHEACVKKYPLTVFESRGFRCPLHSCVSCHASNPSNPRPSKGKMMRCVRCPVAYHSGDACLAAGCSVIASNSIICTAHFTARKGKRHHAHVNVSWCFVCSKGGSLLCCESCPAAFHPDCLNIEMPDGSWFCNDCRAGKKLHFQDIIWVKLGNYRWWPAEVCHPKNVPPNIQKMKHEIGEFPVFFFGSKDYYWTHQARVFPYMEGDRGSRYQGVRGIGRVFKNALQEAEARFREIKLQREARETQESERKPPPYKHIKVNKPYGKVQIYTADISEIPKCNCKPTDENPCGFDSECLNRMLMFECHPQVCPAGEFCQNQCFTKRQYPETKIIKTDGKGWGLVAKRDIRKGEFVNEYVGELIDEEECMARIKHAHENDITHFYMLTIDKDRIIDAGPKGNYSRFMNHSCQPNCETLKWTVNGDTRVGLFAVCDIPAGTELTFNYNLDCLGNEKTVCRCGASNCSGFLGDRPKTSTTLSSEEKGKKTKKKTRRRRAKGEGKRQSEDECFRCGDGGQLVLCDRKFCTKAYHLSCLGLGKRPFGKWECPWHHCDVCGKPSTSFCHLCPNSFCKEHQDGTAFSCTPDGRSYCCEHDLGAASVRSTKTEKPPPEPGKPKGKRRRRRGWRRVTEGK

SMILES | IC50 [1] | AC50 [2]
O=C(O)CSc1cc(NS(=O)(=O)c2ccc(Cl)cc2)c2ccccc2c1O | 4.67 µM (active) | –
Cc1cccc(N=Nc2ccc(N(C)C)cc2)c1 | – | 14.2 µM (active)
